Patent publication US8835476B2, “Synthesis of novel antimicrobials” (priority 2005, dated 2014)

Assays:
recombinant E. coli LpxA = molecular target: T1, recombinant E. coli LpxA (Escherichia coli, UniProt P0A722); test: LpxA assay: acyl-UDP-GlcNAc formation from UDP-[3H]GlcNAc, TLC; format: biochemical; conditions: for inhibition at 5000 µM: 5 mM compound, FIG. 8
T1 construct: 6xHis (C); made in house; host or cells: E. coli BL21 (pET23b)
Excerpt: The lpxA gene was amplified from an E. coli genomic library and inserted into a pET23b vector using standard recombinant DNA methodology. The 5′ oligonucleotide for amplification of the LpxA open reading frame was 5′-[…]-3′ (SEQ ID NO. 1) and contains a BamHI restriction enzyme site upstream of the LpxA ATG start codon and the 3′ oligonucleotide was 5′-[…]-3′ (SEQ ID NO. 2) and contains a XhoI restriction enzyme site downstream of the final codon of the LpxA open reading frame. Primers were custom synthesized. The primers were designed such that digestion of the amplification product would result in addition of a C-terminal 6×-His tag in frame with the LpxA open reading frame. Specifically, E. coli genomic DNA was isolated and an amplification reaction was carried out as follows: 33 μl water, 5 μl 10× reaction buffer, 1.5 μl of 50 mM magnesium sulfate, 3 μl of 10 mM dNTPs, 3 μl of a 50 μM solution of the 5′ LpxA primer, 3 μl of a 50 μM solution of the 3′ LpxA primer, 0.5 μl of E. coli genomic DNA solution, and 1 μl of polymerase. The reaction conditions were as follows: 94° C. for 2 minutes; followed by 30 cycles of 94° C. for 30 seconds, 50° C. for 30 seconds, 68° C. for 1.5 minutes, followed by an extension at 68° C. for 7 minutes. The resulting LpxA product was separated from other DNA on a 0.8% agarose gel and isolated from the gel. The LpxA open reading frame was cloned into a topoisomerase I-activated vector and transformed into E. coli. […] The newly synthesized plasmid containing the BamHI- and XhoI-flanked LpxA open reading frame and plasmid pET23a were digested with BamHI and XhoI at 37° C. for 2 hours, DNA was separated by agarose gel electrophoresis, isolated from the gel, and ligated. Ligation reactions were transformed into chemically competent E. coli and plasmid DNA was isolated. Restriction mapping was performed to determine which plasmids contained the LpxA open reading frame. To remove the T7 epitope coding sequence from the 5′end of the LpxA open reading frame, the pET23a plasmid containing the LpxA open reading frame was digested with the restriction enzymes BamHI and XhoI and a pET23b plasmid was digested with BglII and XhoI, DNA was separated by agarose gel electrophoresis, isolated from the gel, and ligated. Ligation reactions were transformed into chemically competent E. coli and plasmid DNA was isolated. Restriction mapping was performed to assess plasmids containing the LpxA open reading frame.
A 5 ml culture of E. Coli BL21 cells expressing the LpxA-6×His plasmid was grown overnight at 37° C. in LB medium containing 50 μg/ml ampicillin and 34 μg/ml chloramphenicol, then subcultured into 500 ml of the same medium and grown at 37° C. until A600=0.6. LpxA expression was induced by addition of 0.5 mM IPTG for three hours. The cells were centrifuged at 7 000×g for 10 minutes at 4° C. and lysed using a mild, nonionic detergent. The soluble fraction containing LpxA was added to 1 ml of nickel affinity resin in a 15 ml Falcon tube; the resin was washed extensively with extraction/wash buffer (50 mM Na-phosphate (pH 7.0) and 300 mM NaCl) prior to use. This mixture was incubated on a rotating platform at low speed for 20 minutes at room temperature. The resin was centrifuged at 1000 rpm in a bench top centrifuge for 2 min, washed twice (10 min each) with 10 ml of extraction/wash buffer, resuspended in 10 ml of extraction/wash buffer, and transferred to a 10 ml polypropylene disposable protein purification column. The column was eluted with 5 ml of 50 mM Na-phosphate (pH 7.0) containing 300 mM NaCl and 150 mM imidazole, collected in 1 ml fractions. The eluate was analysed by SDS-PAGE and was visualised using a protein stain (FIG. 7 inset).
Recombinant Vibrio harveyi acyl carrier protein was prepared from a GST fusion protein as described previously (Flaman et al., 2001). […]

E. coli BL21 cells = test: Inhibition of E. coli growth in liquid culture (OD 600 nm); format: cell-based; conditions: for growth inhibitory activity, E. coli liquid culture: only at the highest concentration tested (1 mM); for growth inhibitory activity, E. coli liquid culture / growth of E. coli in liquid culture: FIG. 11
Protocol: Compounds to be tested were dissolved in ethanol or DMSO and subsequently diluted into of Luria broth. The final concentration of ethanol (2%, v/v) or DMSO (1%, v/v) had minimal effect on growth rate. Culture tubes were subsequently inoculated with E. coli BL21 or D22 cells to an optical density (at 600 nm) of 0.01 and incubated on a rotary shaker at 37° C. The optical density at 600 nm of 100 μl samples was measured at indicated time points.

[1] = test system: LPS synthesis in E. coli strain D22; test: In vivo LPS synthesis: [3H]galactose incorporation into acid-precipitable material; format: cell-based; conditions: 0.1 mM, FIG. 10B
Protocol: LpxA catalyzes the first step in the synthesis of lipid A (the hydrophobic anchor of LPS), which is essential for the growth and pathogenesis of many gram-negative bacteria. The inhibition of LpxA activity would therefore result in decreased synthesis of LPS. To measure the synthesis of LPS in vivo, the incorporation of radiolabelled galactose into acid-precipitable material was determined. The E. coli strain used for these studies was D22 (obtained from the E. coli Genetic Stock Center), which contains a mutation in the LpxC gene (lpxC101; Normark et al., 1969, J Bacteriol 97, 1334). Strains harbouring this mutation have an increased susceptibility to antibiotics, in addition to producing approximately 30% less LPS (Grundstrom et al., 1980, J Bacteriol 144, 884.). Bacteria were grown in Luria broth to early-log phase, at which point, 500 μl was transferred to a culture tube containing 1 μl of [^3H]galactose (final concentration, 0.2 mM, 20 μCi/μmol) and mixed. Cultures were incubated at 30° C. for 75 minutes with shaking at 220 rpm. Incorporation was terminated by adding 400 μl of labelled culture to 44.4 μl of 100% trichloroacetic acid (TCA, 10% final concentration) in a 1.5 ml microcentrifuge tube. Tubes were vortexed, incubated on ice for 30 minutes, then centrifuged at 14 000 rpm for 5 minutes at room temperature. The pellet was rinsed twice with 1 ml of ice-cold 10% TCA, resuspended in 50 μl of formic acid, and transferred to a scintillation vial for counting.
Compounds to be tested were dissolved in DMSO and added to the bacterial culture prior to labelling with galactose, and LPS synthesis was determined as described previously. The final concentration of DMSO (1%, v/v) had minimal effect on LPS synthesis.

T1 sequence (P0A722 whole entry): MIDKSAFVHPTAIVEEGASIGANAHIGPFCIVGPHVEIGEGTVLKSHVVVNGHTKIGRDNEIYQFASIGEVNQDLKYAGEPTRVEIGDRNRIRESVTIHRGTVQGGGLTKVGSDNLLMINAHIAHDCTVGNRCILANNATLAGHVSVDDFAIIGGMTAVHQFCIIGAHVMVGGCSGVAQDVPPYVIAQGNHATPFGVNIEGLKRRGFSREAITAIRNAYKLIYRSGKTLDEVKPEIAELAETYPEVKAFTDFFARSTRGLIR

Row | Compound | inhibition at 5000 µM (recombinant E. coli LpxA) [%] | growth inhibitory activity, E. coli liquid culture (E. coli BL21 cells) | other results
1 | CCOC(=O)c1cc(-c2nnn[nH]2)c(-c2ccc(F)cc2)s1 [DNM-124, 5-(4-Fluoro-phenyl)-4-(1H-tetrazol-5-yl)-thiophene-2-carboxylic acid ethyl ester] | > 80 | Substantial growth inhibitory activity | 
2 | Cn1nnc(-c2cc(C(=O)O)sc2-c2ccc(F)cc2)n1 [DNM-123, 5-(4-fluorophenyl)-4-(2-methyl-2H-tetrazol-5-yl)thiophene-2-carboxylic acid] | > 80 | Substantial growth inhibitory activity | inhibition at 500 µM (recombinant E. coli LpxA; 500 μM, FIG. 9): ~60%
3 | Fc1ccc(-c2cc(-c3nnn[nH]3)c(-c3ccc(F)cc3)s2)cc1 [DNM-131, 5-(2,5-Bis(4-fluorophenyl)thiophen-3-yl)-1H-tetrazole] | > 80 |  | decrease of LPS synthesis [1]: approximately 70%; inhibition of LpxA activity (recombinant E. coli LpxA; concentrations above 500 μM, FIG. 9): almost complete inhibition; growth of E. coli in liquid culture (E. coli BL21 cells; 10 μM): partial inhibition; growth of E. coli in liquid culture (E. coli BL21 cells; 0.1 or 1 mM): no growth
4 | O=C(O)c1sc(-c2ccc(F)cc2)cc1-c1nnn[nH]1 [DNM-141, 5-(4-Fluoro-phenyl)-3-(1H-tetrazol-5-yl)-thiophene-2-carboxylic acid] | > 80 |  | growth inhibitory effect, E. coli liquid culture (E. coli BL21 cells; concentrations tested in FIG. 11): no apparent effect
5 | Cn1nnc(-c2cc(-c3ccc(F)cc3)sc2C(=O)O)n1 [DNM-142, 5-(4-Fluoro-phenyl)-3-(2-methyl-2H-tetrazol-5-yl)-thiophene-2-carboxylic acid] | > 70 |  | 
